According to a melting point compilation (Tetko et al.):

melting point | SMILES
71 to 72 °C | CC(C)(C)OC(=O)NCc1ccsc1Br
136 °C | CCCCNC(=O)n1cc(F)c(=O)[nH]c1=O
161 to 163 °C | NC(=S)c1ccc[nH]1
241 °C | O=C1COc2cc(O)ccc21
-17.5 °C | Brc1ccsc1Br
88 to 90 °C | CCOC(=O)c1ccc(-n2c(C)ccc2C)cc1
59 °C | COc1cccc(F)c1C=O
-100 °C | CC1=CC1
197 to 201 °C | COC(=O)c1nc[nH]c1C(=O)OC
139 to 140 °C | O=Cc1c(Br)sc2ccc(Cl)cc12
138 °C | COc1c(OC)c(OC(C)=O)c2ccccc2c1OC(C)=O
88 °C | Cc1ccccc1CC(=O)O
134 °C | N#CCc1csc2ccc(Cl)cc12
182 °C | N=C(N)c1ccc(N)cc1
210 to 212 °C | O=C(O)c1cc(Cl)ccc1N=NC1SC(=S)NC1=O (stereo not given)
79 °C | COc1ccc(C(=O)c2ccc(OC)c(OC)c2)cc1
133 °C | CCCc1nn(-c2ccccc2)c(=O)n1C(N)=O
215 °C | N#C/C(=N\Nc1ccc(F)cc1)c1nc2ccccc2c(=O)[nH]1
150 to 152 °C | NC(=O)c1cccnc1Oc1ccc(Cl)cc1
72 °C | Cc1cc(C)c(O)cc1C
32 °C | COC(=O)C1=Cc2ccccc2C1C (stereo not given)
99.5 to 102 °C | Nc1cccc(-c2ncccn2)c1
64 °C | O=[N+]([O-])c1ccc(OCCBr)cc1
295 to 296 °C | O=C(O)[C@@H]1Cc2c([nH]c3ccccc23)CN1

melting point | SMILES
-13.4 °C | CC(=O)N1CCCCC1
204 to 208 °C | CC(=O)Nc1nccs1
-54 °C | Cc1ccc(C(C)(C)C)cc1
189 to 193 °C | CNS(=O)(=O)O
196 to 197 °C | NC(=NO)c1cccc(C(=O)O)c1
82 °C | Cn1cc(Cl)c(C=O)n1
79 °C | O=S(=O)(Cl)c1ccc(Br)cc1Cl
94 °C | C=Cc1ccccc1C(=O)O
200 °C | Cc1nc(-c2ccc(C(=O)O)s2)cs1
79 °C | Cc1ccc(Br)cc1O
80 °C | COC(=O)c1scc(Br)c1O
159 to 160 °C | COC(=O)c1ccc(N)nc1
100 to 101 °C | CCOC(=O)c1cnc2cc(C)nn2c1C
138 °C | Nc1nc(=O)n(C2CSC(CO)O2)cc1F (stereo not given)
111 °C | CC(C)(C)OC(=O)N[C@@H](CC(=O)OCc1ccccc1)C(=O)O
-4 °C | Cc1ccnc(C)n1
310 °C | CC(=O)c1c(O)nc2cc3nc(O)c(C(C)=O)c(C)c3cc2c1C
-51 °C | CC1Cc2ccccc2N1 (stereo not given)
55 °C | CC1=C(C)C(=O)C=CC1=O
170 to 171 °C | CC1=C(C(=O)OCC(C)C)C(c2ccco2)NC(=O)N1 (stereo not given)
60 °C | Cc1ccc(I)cc1[N+](=O)[O-]
147 °C | O=C(CCl)c1ccc(C(=O)C(Cl)Cl)cc1
194 °C | O=C1c2ccccc2C(=O)c2c(O)cccc21

More lines, now with the values behind:

SMILES | melting point
CCOP(=S)(OCC)Oc1cnccn1 | -1.7 °C
O=C1CN2CCOC2(c2ccccc2Cl)c2cc(Cl)ccc2N1 (stereo not given) | 203 °C
COc1ccc(C(C)(C)c2ccc(OC)cc2)cc1 | 54 to 59 °C
CC(C)(C)n1nc(-c2ccc(Cl)cc2)c(C#N)c1N | 154 to 155 °C
N#Cc1ccc(C(Cl)=Cc2cccc(C=C(Cl)c3ccc(C#N)cc3[N+](=O)[O-])c2)c([N+](=O)[O-])c1 | 268 °C
Cc1cc(C#N)cc(Cl)c1N | 129 °C
COc1ccccc1-c1nnc2n1NC(c1ccc(N(C)C)cc1)S2 (stereo not given) | 228 to 230 °C
CCCCCCCCCCCCCCCC(=O)Oc1c[nH]c2ccc(Br)c(Cl)c12 | 53 to 57 °C
ON(c1ccccc1)C(Br)C(Br)c1ccccc1 (stereo not given) | 125 °C
CC12CCC(O)CC1CC1(OCCO1)C1C2CCC2(C)C1CCC21OCCO1 (stereo not given) | 99 to 103 °C
FC(F)(F)C(F)(Cl)C(Cl)(Cl)C(F)(F)F (stereo not given) | 4 °C
O=C1CN(N=Cc2ccc([N+](=O)[O-])o2)C(=O)N1CN1CCOCC1 | 206 °C
CCCOc1c2cccc1Cc1cc(Br)cc(c1O)Cc1cccc(c1OCCC)Cc1cc(Br)cc(c1O)C2 | 307 to 309 °C
CC=CC=CCCCCCCCO | 32 °C
Cc1cc(Sc2cc(C)c(O)c(C(C)(C)C)c2)cc(C(C)(C)C)c1O | 126 °C
COc1cc(OC)c(C#N)c(OC)c1 | 142 to 145 °C
Nc1ccc(Br)cc1F | 40 °C
CCCCCCCCCCCCCCCl | 4.9 °C
O=C1CCCCCCCC1 | 34 °C
NN1C(=O)CSC1=S | 102 °C
CC1C(=O)C23C(O)CC4C(C)(CO)CCCC4(CO)C2C(O)CC1C3O (stereo not given) | 266 °C
COC(=O)CCC(C)C1CCC2C3C(=O)C(Br)C4CCCCC4(C)C3CCC12C (stereo not given) | 123 to 124 °C
N#Cc1cc2c(=O)oc3ccccc3c2nc1N | 289 °C
CCOP(=S)(Oc1ccc(C#N)cc1)c1ccccc1 (stereo not given) | 83 °C

SMILES | melting point
CSc1nc(NC(C)C)nc(NC(C)C)n1 | 119 °C
c1ccc(CN(CC2=NCCN2)c2ccccc2)cc1 | 120 °C
CC1=CC(=O)OC(C)(C)O1 | 7 °C
CC(C)(CC(=O)O)C(=O)O | 140 °C
Nc1cccc(I)c1 | 33 °C
Cc1ccc(-c2nnc(-c3ccccc3)c3c(C)onc23)cc1 | 206 °C
O=C1NCN(c2ccccc2)C12CCNCC2 | 183 to 185 °C
CN(C)CC(O)c1ccc(O)c(O)c1 (stereo not given) | 149 °C
COc1cc(C2c3cc4c(cc3C(OC3OC5COC(c6cccs6)OC5C(O)C3O)C3COC(=O)C23)OCO4)cc(OC)c1O (stereo not given) | 244 °C
CC(CC1CCCCC1)C1CCCCC1 (stereo not given) | -22 °C
S=C=Nc1c(Cl)c(Cl)cc(Cl)c1Cl | 88 to 90 °C
FC(F)(F)Sc1ccc(CBr)cc1 | 55 °C
N#Cc1ccc(F)c(C(F)(F)F)c1 | 68 °C
CC(=NO)c1cccnc1 | 103 to 105 °C
Nc1cccc2cc[nH]c12 | 91 °C
CC(C)(C)OC(=O)N1CCSCC1C(=O)O (stereo not given) | 145 to 147 °C
CC12CCC(C(=O)Cl)(OC1=O)C2(C)C (stereo not given) | 66 °C
O=C(O)/C(=C\c1ccccc1)c1ccccc1[N+](=O)[O-] | 192 °C
Ic1ccccc1CN1CCOCC1 | 46 to 48 °C
CC(=O)N1CCN(CCN2C3=C(C(=O)CC(C)(C)C3)C(c3ccc(Cl)cc3)C3=C2CC(C)(C)CC3=O)CC1 | 213 °C
O=C1C(=Cc2ccccc2)N=C(N2CCOCC2)N1c1ccccc1 | 235 °C
C/C(=N\c1ccc(O)c(C)c1)c1c(O)c2ccccc2n(-c2ccccc2)c1=O | 231 to 232 °C
Cc1cc(C)c(C(=O)P(=O)(c2ccccc2)c2ccccc2)c(C)c1 | 90 °C
O=C1C(=O)C(Br)=C(Br)C(Br)=C1Br | 143 to 148 °C
